Active and inactive are the calls of the source. No cut-off for these calls is given here.
Columns and labels:
Exportin-1 [1] = target: T1, Exportin-1 (Homo sapiens, UniProt O14980); experiment: Inhibition of immobilized HsCRM1-HsRanGTP-HsSPN binding to C-terminal His6-tagged and MBP-fused full length human CRM1 expressed in Escherichia coli SG13009 at 100 nmol incubated for 20 mins by pull-down assay
[2] = target: Exportin-1 (Saccharomyces cerevisiae) (UniProt P30822); experiment: Inhibition of fluorescently labeled PKI phi(0)Leu NES binding to Saccharomyces cerevisiae CRM1 expressed in Escherichia coli BL21 (DE3) at 0.5 to 500 uM by fluorescence polarization competition binding assay
Exportin-1 [3] = target: T1, Exportin-1; experiment: Inhibition of fluorescently labeled PKI phi(0)Leu NES binding to human CRM1 expressed in Escherichia coli BL21 (DE3) by fluorescence polarization competition binding assay
[4] = test system: Exportin-1 (Homo sapiens), O14980 [C528S]; experiment: Inhibition of fluorescently labeled PKI phi(0)Leu NES binding to human CRM1 C528S mutant expressed in Escherichia coli BL21 (DE3) at 62 uM by fluorescence polarization competition binding assay
Saccharomyces cerevisiae [5] = experiment: Inhibition of fluorescently labeled PKI phi(0)Leu NES binding to Saccharomyces cerevisiae CRM1 Thr539Cys mutant expressed in Escherichia coli BL21 (DE3) at 2 to 2000 nM by fluorescence polarization competition binding assay
[6] = target: Exportin-1 (Saccharomyces cerevisiae) (UniProt P30822); conditions: 2 to 2000 nM
Description: Inhibition of fluorescently labeled PKI phi(0)Leu NES binding to Saccharomyces cerevisiae CRM1 expressed in Escherichia coli BL21 (DE3) at 2 to 2000 nM by fluorescence polarization competition binding assay

[7] = test system: Exportin-1 (Homo sapiens), O14980 [C528S]; conditions: 200 nM
Description: Inhibition of fluorescently labeled PKI phi(0)Leu NES binding to human CRM1 C528S mutant expressed in Escherichia coli BL21 (DE3) at 200 nM by fluorescence polarization competition binding assay

[8] = target: Exportin-1 (Saccharomyces cerevisiae) (UniProt P30822); experiment: Inhibition of fluorescently labeled PKI phi(0)Leu NES binding to Saccharomyces cerevisiae CRM1 expressed in Escherichia coli BL21 (DE3) at 0.2 to 200 uM by fluorescence polarization competition binding assay
Saccharomyces cerevisiae [9] = experiment: Inhibition of fluorescently labeled PKI phi(0)Leu NES binding to Saccharomyces cerevisiae CRM1 Thr539Cys mutant expressed in Escherichia coli BL21 (DE3) at 0.2 to 200 uM by fluorescence polarization competition binding assay
[10] = test system: Exportin-1 (Homo sapiens), O14980 [C528S]; experiment: Inhibition of fluorescently labeled PKI phi(0)Leu NES binding to human CRM1 C528S mutant expressed in Escherichia coli BL21 (DE3) at 6 uM by fluorescence polarization competition binding assay

Exportin-1 (Homo sapiens), O14980 [C528S], sequence (O14980 whole entry C528S): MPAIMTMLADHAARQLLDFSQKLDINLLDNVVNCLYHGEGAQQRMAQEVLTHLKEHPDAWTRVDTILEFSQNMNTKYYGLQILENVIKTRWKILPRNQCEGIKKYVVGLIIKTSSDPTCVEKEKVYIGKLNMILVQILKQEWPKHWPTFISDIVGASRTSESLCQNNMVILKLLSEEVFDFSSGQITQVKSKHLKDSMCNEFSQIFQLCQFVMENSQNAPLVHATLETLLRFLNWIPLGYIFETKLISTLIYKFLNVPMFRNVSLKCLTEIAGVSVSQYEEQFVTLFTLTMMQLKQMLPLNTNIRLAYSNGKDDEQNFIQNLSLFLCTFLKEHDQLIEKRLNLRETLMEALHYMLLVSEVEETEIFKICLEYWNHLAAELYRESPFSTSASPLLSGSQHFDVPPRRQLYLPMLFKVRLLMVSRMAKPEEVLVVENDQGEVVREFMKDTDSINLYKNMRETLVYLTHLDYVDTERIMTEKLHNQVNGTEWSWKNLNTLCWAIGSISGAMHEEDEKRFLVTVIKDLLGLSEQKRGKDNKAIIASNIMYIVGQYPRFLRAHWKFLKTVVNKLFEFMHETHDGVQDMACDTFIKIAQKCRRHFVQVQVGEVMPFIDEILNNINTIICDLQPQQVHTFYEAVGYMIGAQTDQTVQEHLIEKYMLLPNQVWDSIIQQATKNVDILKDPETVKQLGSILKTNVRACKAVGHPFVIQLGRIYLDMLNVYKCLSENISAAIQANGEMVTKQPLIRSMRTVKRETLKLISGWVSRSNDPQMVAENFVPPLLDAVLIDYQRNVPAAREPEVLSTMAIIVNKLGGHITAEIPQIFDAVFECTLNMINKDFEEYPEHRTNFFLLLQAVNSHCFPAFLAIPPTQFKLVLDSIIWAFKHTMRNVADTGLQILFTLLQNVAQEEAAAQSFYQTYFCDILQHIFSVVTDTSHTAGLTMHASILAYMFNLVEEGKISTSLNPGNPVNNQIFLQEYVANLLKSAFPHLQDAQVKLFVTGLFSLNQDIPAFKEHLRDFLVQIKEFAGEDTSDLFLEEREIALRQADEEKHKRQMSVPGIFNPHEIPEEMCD
T1 sequence (O14980 whole entry, the tested form may be a part): as the sequence (O14980 whole entry C528S) above, with S528C counted along it

SMILES	inhibition (Exportin-1 [1])	inhibition [2]	IC50 (Exportin-1 [3]) [µM]	inhibition [4]	inhibition (Saccharomyces cerevisiae [5])	inhibition [6]	inhibition [7]	inhibition (Exportin-1 [3])	inhibition [8]	inhibition (Saccharomyces cerevisiae [9])	inhibition [10]
CCOC(=O)c1n[nH]c2c1C(=O)N(c1ccc([N+](=O)[O-])cc1)C2=O	Active	Active	63	Active	–	–	–	–	–	–	–
CCC(=C/[C@H](C)C/C=C/C(C)=C/[C@@H](C)C(=O)[C@@H](C)[C@H](O)[C@@H](C)C/C(C)=C/C(=O)O)/C=C/[C@@H]1OC(=O)C=C[C@@H]1C [LEPTOMYCIN B]	–	–	0.151	–	Active	inactive	inactive	–	–	–	–
COc1cc2cnsc2s1	inactive	–	40	inactive	–	–	–	Dose-dependent effect	–	–	–
NC(=O)c1c(NC(NC(=O)c2ccccc2F)(C(F)(F)F)C(F)(F)F)sc2c1CCCC2	inactive	–	59	inactive	–	–	–	Dose-dependent effect	inactive	inactive	–
COc1cc(-c2nc(S(=O)(=O)c3ccc(Cl)cc3)c(N(C)C)o2)cc(OC)c1OC	Active	–	4.2	–	–	–	–	Dose-dependent effect	inactive	inactive	inactive

— ChEMBL document CHEMBL4613329, “Characterization of Inhibition Reveals Distinctive Properties for Human and Saccharomyces cerevisiae CRM1” (J Med Chem, 2020)
